# Laboratory results as given in article PMC7226370, “Thymus algeriensis and Thymus fontanesii: Chemical Composition, In Vivo Antiinflammatory, Pain Killing and Antipyretic Activities: A Comprehensive Comparison” (Biomolecules, 2020).
# Legend:
# [1] = Total antioxidant capacity (TAC) ELISA kit; settings: mean ± SEM, n = 3
# Experimental: The total antioxidant capacity of the extracts was evaluated against ascorbic acid as a reference standard using the commercially available TAC ELISA kit (MBS726896, my BioSource, Inc., San Diego, CA, USA) according to the manufacturer’s instructions and according to Sobeh et al..
# [2] = target: lipoxygenase (5-LOX); assay: Lipoxygenase inhibitor screening assay kit; format: biochemical; settings: in vitro, mean ± SEM, n = 3
# Experimental: The potential of T. algeriensis and T. fontanesii extracts to inhibit lipoxygenase was evaluated using a lipoxygenase inhibitor screening assay kit (Cayman Chemical, AnnArbor, MI, USA) according to the manufacturer’s instructions and the study by Adellall et al..
# [3] = system: carrageenan-induced hind paw edema in rats; assay: Carrageenan-induced hind-paw edema model; format: in vivo, rat; settings: 1 h before carrageenan
# Experimental: Nine groups of male rats (200-220 g) with five animals per group were used in this experiment. Induction of edema in the rats' right hind paw was done by injecting 0.1 mL freshly prepared carrageenan solution (1% in 0.9% NaCl), into the sub-plantar tissue. […] By the aid of a caliper ruler, the paw thickness (mm) was measured in the dorsal- plantar axis before and after injecting the carrageenan solution, and at hourly intervals for 5 h, and finally at 24 h. The cumulative anti-inflammatory effect during the whole observation period (0-24 h) was determined by calculating the area under the changes in paw thickness-time curve (AUC0-24).
# [4] = system: leukocyte migration into the peritoneal cavity in mice; assay: Carrageenan-induced leukocyte recruitment into peritoneal cavity; format: in vivo, mouse
# Experimental: Three hours later, the mice were euthanized, and each peritoneal cavity was washed with 3 mL of phosphate-buffered saline (PBS) containing 1mM ethylenediaminetetraacetic acid (EDTA). The total leukocytes count was determined in each peritoneal cavity wash using a hemocytometer and presented as number of cells/mL.
# [5] = system: acetic acid-induced vascular permeability in mice; assay: Acetic acid-induced vascular permeability (Evans blue); format: in vivo, mouse
# Experimental: Acetic acid-induced vascular permeability was done as described by Sobeh et al.. […] One group of mice was injected with normal saline to serve as normal control. Mice were euthanized 30 min later by cervical dislocation, the abdominal cavities were washed with 3 mL saline solution, and the collected washings were then centrifuged at 3000 rpm for 10 min. The vascular permeability is proportional to the absorbance of Evans blue dye in the supernatant, which was detected at 610 nm using a plate reader (Biotech, Winooski, VT, USA).
# [6] = system: Brewer's yeast induced pyrexia in mice; assay: Brewer's yeast induced pyrexia; format: in vivo, mouse; settings: in °C (unit assumed)
# Experimental: Pyrexia in mice was induced as described by Liu et al. with minor modifications. The initial rectum temperature of each animal was measured using a lubricated digital thermometer. Brewer’s yeast suspension was prepared in normal saline (30%) and injected subcutaneously behind the animal’s neck (1 mL/100 g). After 18 h, animals’ rectal temperatures were measured again (T0). […] Pyretic animals were treated orally with either T. algeriensis or T. fontanesii extracts in three dose levels (200, 400, and 600 mg/kg), paracetamol (150 mg/kg), or vehicle. Rectal temperatures were measured at 30 min, 1, 2, 3 and 24 h following the different treatments.
smiles,measurement,setting,value
O=C1O[C@H]([C@@H](O)CO)C(O)=C1O [Ascorbic Acid],TAC (total antioxidant capacity),[1],27.6 ± 1.40 U/L
O=C(O)Cc1ccccc1Nc1c(Cl)cccc1Cl [Diclofenac],IC50,[2],2.6 ± 0.21 µM
same,"reduction of paw thickness, of control AUC0-24",[3]; 20 mg/kg p.o.,44%
same,reduction in leucocyte number,[4]; 20 mg/kg p.o. before carrageenan 500 µg i.p.,39%
same,lower Evans blue readings compared to control,[5]; 20 mg/kg,73%
CC(=O)Nc1ccc(O)cc1 [Paracetamol],"Rectal Temperature Recorded Following Different Treatments, 30 min","[6]; 150 mg/kg p.o., 30 min",38.18 ± 0.20
same,"Rectal Temperature Recorded Following Different Treatments, 1 h","[6]; 150 mg/kg p.o., 1 h",37.56 ± 0.30
same,"Rectal Temperature Recorded Following Different Treatments, 2 h","[6]; 150 mg/kg p.o., 2 h",37.06 ± 0.29
same,"Rectal Temperature Recorded Following Different Treatments, 3 h","[6]; 150 mg/kg p.o., 3 h",36.94 ± 0.25
same,"Rectal Temperature Recorded Following Different Treatments, 24 h","[6]; 150 mg/kg p.o., 24 h",36.54 ± 0.23
same,Rectal Temperature measured at 18 h after yeast injection,"[6]; group of 150 mg/kg, before treatment (T0)",38.66 ± 0.18
CC(c1cc2ccccc2s1)N(O)C(N)=O (stereo not drawn) [Zileuton],IC50,[2],3.2 ± 0.15 µM
C[C@@H]1C[C@H]2[C@@H]3CCC4=CC(=O)C=C[C@]4(C)[C@@]3(F)[C@@H](O)C[C@]2(C)[C@@]1(O)C(=O)CO [dexamethasone],reduction in AUC0-24 values compared to vehicle-treated rats,[3]; 2 mg/kg p.o.,51%
same,reduction in leucocyte number,[4]; 2 mg/kg p.o. before carrageenan 500 µg i.p.,30%
same,lower Evans blue readings compared to control,[5]; 2 mg/kg,60%
